# From ChEMBL document CHEMBL5058649, “Data for DCP probe BAY 1816032” (2022)
# Key:
# [1] = target: Beta-adrenergic receptor kinase 1 (Homo sapiens) (UniProt P25098); assay: GRK2 DiscoveRx kinase panel; conditions: Compound concentration 1.0 uM
# [2] = target: Phosphatidylinositol 4-phosphate 5-kinase type-1 alpha (Homo sapiens) (UniProt Q99755); assay: PIP5K1A DiscoveRx kinase panel; conditions: Compound concentration 1.0 uM
# [3] = target: Mitogen-activated protein kinase 6 (Homo sapiens) (UniProt Q16659); assay: ERK3 DiscoveRx kinase panel; conditions: Compound concentration 1.0 uM
# [4] = target: High affinity nerve growth factor receptor (Homo sapiens) (UniProt P04629); assay: TRKA DiscoveRx kinase panel; conditions: Compound concentration 1.0 uM
# [5] = target: GABA-A receptor; anion channel (Rattus norvegicus) (UniProt O09028+P15431+P18506+P18508+P19969+P20236+P23574+P23576+P28471+P28473+P30191+P62813+P63079+P63138+Q91ZM7+Q9ES14); conditions: Compound concentration 10.0 uM
# [6] = target: Serine/threonine-protein kinase D2 (Homo sapiens) (UniProt Q9BZL6); assay: PRKD2 DiscoveRx kinase panel; conditions: Compound concentration 1.0 uM
# [7] = target: Aurora kinase B (Homo sapiens) (UniProt Q96GD4); assay: AURKB DiscoveRx kinase panel; conditions: Compound concentration 1.0 uM
# [8] = target: Inhibitor of nuclear factor kappa-B kinase subunit epsilon (Homo sapiens) (UniProt Q14164); assay: IKK-epsilon DiscoveRx kinase panel; conditions: Compound concentration 1.0 uM
# Sequence of Inhibitor of nuclear factor kappa-B kinase subunit epsilon (Homo sapiens) (Q14164 whole entry): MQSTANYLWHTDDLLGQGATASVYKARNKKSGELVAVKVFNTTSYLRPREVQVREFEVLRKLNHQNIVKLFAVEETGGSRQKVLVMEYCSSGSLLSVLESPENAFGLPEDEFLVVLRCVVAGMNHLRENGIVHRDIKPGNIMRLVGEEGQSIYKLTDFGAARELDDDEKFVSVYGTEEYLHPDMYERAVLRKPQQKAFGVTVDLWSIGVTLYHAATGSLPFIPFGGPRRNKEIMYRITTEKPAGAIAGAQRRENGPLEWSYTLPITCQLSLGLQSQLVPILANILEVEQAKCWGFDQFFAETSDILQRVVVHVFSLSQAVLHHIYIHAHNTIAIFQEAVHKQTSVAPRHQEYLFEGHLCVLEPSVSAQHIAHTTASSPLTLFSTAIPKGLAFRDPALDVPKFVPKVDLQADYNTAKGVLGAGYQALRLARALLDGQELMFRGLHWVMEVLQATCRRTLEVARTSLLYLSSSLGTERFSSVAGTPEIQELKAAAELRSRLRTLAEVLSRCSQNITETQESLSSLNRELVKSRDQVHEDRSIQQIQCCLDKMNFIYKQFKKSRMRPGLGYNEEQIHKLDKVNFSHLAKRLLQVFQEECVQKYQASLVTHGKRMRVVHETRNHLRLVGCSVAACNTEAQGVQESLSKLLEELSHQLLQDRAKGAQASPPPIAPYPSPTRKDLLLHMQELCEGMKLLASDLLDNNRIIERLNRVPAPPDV
# [9] = target: Serine/threonine-protein kinase DCLK1 (Homo sapiens) (UniProt O15075); assay: DCAMKL1 DiscoveRx kinase panel; conditions: Compound concentration 1.0 uM
# [10] = target: Glycogen synthase kinase-3 beta (Homo sapiens) (UniProt P49841); assay: GSK3B DiscoveRx kinase panel; conditions: Compound concentration 1.0 uM
# [11] = target: Mitogen-activated protein kinase kinase kinase kinase 2 (Homo sapiens) (UniProt Q12851); assay: MAP4K2 DiscoveRx kinase panel; conditions: Compound concentration 1.0 uM
# [12] = target: Cyclin-dependent kinase-like 5 (Homo sapiens) (UniProt O76039); assay: CDKL5 DiscoveRx kinase panel; conditions: Compound concentration 1.0 uM
# [13] = target: Ephrin type-A receptor 5 (Homo sapiens) (UniProt P54756); assay: EPHA5 DiscoveRx kinase panel; conditions: Compound concentration 1.0 uM
# [14] = target: Serine/threonine-protein kinase Nek9 (Homo sapiens) (UniProt Q8TD19); assay: NEK9 DiscoveRx kinase panel; conditions: Compound concentration 1.0 uM
# [15] = target: D(4) dopamine receptor (Homo sapiens) (UniProt P21917); conditions: Compound concentration 10.0 uM
# [16] = target: Protein-tyrosine kinase 6 (Homo sapiens) (UniProt Q13882); assay: BRK DiscoveRx kinase panel; conditions: Compound concentration 1.0 uM
# Sequence of Protein-tyrosine kinase 6 (Homo sapiens) (Q13882 whole entry, looked up): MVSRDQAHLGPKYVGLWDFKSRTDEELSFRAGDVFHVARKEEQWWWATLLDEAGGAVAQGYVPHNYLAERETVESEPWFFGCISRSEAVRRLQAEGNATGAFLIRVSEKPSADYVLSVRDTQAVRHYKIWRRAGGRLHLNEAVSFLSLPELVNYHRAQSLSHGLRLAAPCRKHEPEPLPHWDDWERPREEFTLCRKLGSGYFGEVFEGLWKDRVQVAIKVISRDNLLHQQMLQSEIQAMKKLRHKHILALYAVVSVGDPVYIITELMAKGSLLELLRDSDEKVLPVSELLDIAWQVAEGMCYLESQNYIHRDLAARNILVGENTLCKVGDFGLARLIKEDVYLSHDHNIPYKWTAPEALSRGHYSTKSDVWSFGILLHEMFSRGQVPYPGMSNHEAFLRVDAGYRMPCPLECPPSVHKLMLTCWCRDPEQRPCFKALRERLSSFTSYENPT
# [17] = target: D(2) dopamine receptor (Homo sapiens) (UniProt P14416); conditions: Compound concentration 10.0 uM
# [18] = target: Serine/threonine-protein kinase 4 (Homo sapiens) (UniProt Q13043); assay: MST1 DiscoveRx kinase panel; conditions: Compound concentration 1.0 uM
# [19] = target: Insulin receptor-related protein (Homo sapiens) (UniProt P14616); assay: INSRR DiscoveRx kinase panel; conditions: Compound concentration 1.0 uM
# [20] = target: Proto-oncogene tyrosine-protein kinase receptor Ret (Homo sapiens) (UniProt P07949); assay: RET DiscoveRx kinase panel; conditions: Compound concentration 1.0 uM
# [21] = target: Mitogen-activated protein kinase kinase kinase 20 (Homo sapiens) (UniProt Q9NYL2); assay: ZAK DiscoveRx kinase panel; conditions: Compound concentration 1.0 uM
# Sequence of Mitogen-activated protein kinase kinase kinase 20 (Homo sapiens) (Q9NYL2 2-800 limits assumed): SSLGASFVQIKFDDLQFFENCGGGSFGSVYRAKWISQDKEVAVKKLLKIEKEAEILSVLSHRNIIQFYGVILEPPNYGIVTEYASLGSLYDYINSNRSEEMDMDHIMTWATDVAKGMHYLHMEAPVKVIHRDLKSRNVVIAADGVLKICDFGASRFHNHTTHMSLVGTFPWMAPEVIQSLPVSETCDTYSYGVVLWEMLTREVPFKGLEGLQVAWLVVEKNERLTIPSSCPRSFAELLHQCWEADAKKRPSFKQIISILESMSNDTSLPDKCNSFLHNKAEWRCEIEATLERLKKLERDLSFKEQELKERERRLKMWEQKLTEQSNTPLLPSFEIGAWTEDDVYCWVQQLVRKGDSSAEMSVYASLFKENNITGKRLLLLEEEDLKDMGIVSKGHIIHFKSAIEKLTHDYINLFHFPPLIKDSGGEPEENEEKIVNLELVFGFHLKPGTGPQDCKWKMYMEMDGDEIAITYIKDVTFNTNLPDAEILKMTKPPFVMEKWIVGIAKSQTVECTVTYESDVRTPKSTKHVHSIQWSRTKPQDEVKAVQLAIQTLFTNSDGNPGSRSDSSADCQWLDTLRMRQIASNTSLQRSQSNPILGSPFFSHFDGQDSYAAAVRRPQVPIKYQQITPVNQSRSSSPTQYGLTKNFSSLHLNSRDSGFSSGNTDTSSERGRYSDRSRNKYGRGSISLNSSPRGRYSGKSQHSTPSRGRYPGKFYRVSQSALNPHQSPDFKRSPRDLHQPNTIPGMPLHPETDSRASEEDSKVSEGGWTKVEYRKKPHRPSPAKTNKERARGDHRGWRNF
# [22] = target: Mitotic checkpoint serine/threonine-protein kinase BUB1 (Homo sapiens, UniProt O43683); assay: BUB1 DiscoveRx kinase panel
# [23] = target: LIM domain kinase 2 (Homo sapiens) (UniProt P53671); assay: LIMK2 DiscoveRx kinase panel; conditions: Compound concentration 1.0 uM
# [24] = target: Serine/threonine-protein kinase SBK1 (Homo sapiens) (UniProt Q52WX2); assay: SBK1 DiscoveRx kinase panel; conditions: Compound concentration 1.0 uM
# [25] = target: Cyclin-dependent kinase 19 (Homo sapiens) (UniProt Q9BWU1); assay: CDK11 DiscoveRx kinase panel; conditions: Compound concentration 1.0 uM
# [26] = target: Phosphatidylinositol 4,5-bisphosphate 3-kinase catalytic subunit delta isoform (Homo sapiens) (UniProt O00329); assay: PIK3CD DiscoveRx kinase panel; conditions: Compound concentration 1.0 uM
# [27] = target: 3-phosphoinositide-dependent protein kinase 1 (Homo sapiens) (UniProt O15530); assay: PDPK1 DiscoveRx kinase panel; conditions: Compound concentration 1.0 uM
# [28] = target: Type-1 angiotensin II receptor (Homo sapiens) (UniProt P30556); assay: Angiotensin AT1 Eurofins-Panlabs radioligand binding assay; conditions: Compound concentration 10.0 uM
# Sequence of Type-1 angiotensin II receptor (Homo sapiens) (P30556 whole entry): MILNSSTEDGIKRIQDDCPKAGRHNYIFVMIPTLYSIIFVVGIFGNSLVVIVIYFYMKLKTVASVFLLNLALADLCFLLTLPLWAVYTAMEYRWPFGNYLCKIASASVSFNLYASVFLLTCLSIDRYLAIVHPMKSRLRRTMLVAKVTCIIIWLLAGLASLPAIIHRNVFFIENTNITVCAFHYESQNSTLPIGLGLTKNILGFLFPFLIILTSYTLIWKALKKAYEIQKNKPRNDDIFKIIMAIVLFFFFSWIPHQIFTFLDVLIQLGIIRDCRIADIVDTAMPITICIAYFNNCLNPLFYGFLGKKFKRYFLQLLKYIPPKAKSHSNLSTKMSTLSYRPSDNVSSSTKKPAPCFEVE
# [29] = target: Calcium/calmodulin-dependent protein kinase type 1B (Homo sapiens) (UniProt Q6P2M8); assay: CAMK1B DiscoveRx kinase panel; conditions: Compound concentration 1.0 uM
# [30] = target: Citron Rho-interacting kinase (Homo sapiens) (UniProt O14578); assay: CIT DiscoveRx kinase panel; conditions: Compound concentration 1.0 uM
# [31] = target: Casein kinase II subunit alpha' (Homo sapiens) (UniProt P19784); assay: CSNK2A2 DiscoveRx kinase panel; conditions: Compound concentration 1.0 uM
# [32] = target: cGMP-dependent protein kinase 2 (Homo sapiens) (UniProt Q13237); assay: PRKG2 DiscoveRx kinase panel; conditions: Compound concentration 1.0 uM
# Sequence of cGMP-dependent protein kinase 2 (Homo sapiens) (Q13237 whole entry): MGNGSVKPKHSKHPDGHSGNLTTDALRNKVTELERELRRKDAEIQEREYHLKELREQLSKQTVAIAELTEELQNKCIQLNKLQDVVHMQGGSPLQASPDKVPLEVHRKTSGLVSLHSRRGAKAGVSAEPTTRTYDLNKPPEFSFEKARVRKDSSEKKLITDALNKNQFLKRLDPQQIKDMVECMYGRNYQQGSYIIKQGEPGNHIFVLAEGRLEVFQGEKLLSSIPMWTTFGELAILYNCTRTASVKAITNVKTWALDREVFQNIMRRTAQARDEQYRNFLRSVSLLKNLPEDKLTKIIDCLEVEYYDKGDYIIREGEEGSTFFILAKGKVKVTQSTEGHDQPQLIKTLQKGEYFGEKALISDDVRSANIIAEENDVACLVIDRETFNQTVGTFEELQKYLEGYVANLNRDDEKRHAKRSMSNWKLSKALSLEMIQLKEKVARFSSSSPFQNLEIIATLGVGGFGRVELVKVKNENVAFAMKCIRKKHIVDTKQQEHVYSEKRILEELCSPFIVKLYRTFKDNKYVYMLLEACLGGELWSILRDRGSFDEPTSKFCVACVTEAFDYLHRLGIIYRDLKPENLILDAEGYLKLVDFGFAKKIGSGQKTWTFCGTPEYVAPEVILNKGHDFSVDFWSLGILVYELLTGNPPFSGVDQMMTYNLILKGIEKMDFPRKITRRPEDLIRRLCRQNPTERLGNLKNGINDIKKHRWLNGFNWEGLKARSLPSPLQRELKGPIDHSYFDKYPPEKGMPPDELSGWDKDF
# [33] = target: NUAK family SNF1-like kinase 1 (Homo sapiens) (UniProt O60285); assay: ARK5 DiscoveRx kinase panel; conditions: Compound concentration 1.0 uM
# [34] = target: Interleukin-1 receptor-associated kinase 1 (Homo sapiens) (UniProt P51617); assay: IRAK1 DiscoveRx kinase panel; conditions: Compound concentration 1.0 uM
# [35] = target: BDNF/NT-3 growth factors receptor (Homo sapiens) (UniProt Q16620); assay: TRKB DiscoveRx kinase panel; conditions: Compound concentration 1.0 uM
# [36] = target: Protein kinase C delta type (Homo sapiens) (UniProt Q05655); assay: PRKCD DiscoveRx kinase panel; conditions: Compound concentration 1.0 uM
# Sequence of Protein kinase C delta type (Homo sapiens) (Q05655 whole entry, looked up): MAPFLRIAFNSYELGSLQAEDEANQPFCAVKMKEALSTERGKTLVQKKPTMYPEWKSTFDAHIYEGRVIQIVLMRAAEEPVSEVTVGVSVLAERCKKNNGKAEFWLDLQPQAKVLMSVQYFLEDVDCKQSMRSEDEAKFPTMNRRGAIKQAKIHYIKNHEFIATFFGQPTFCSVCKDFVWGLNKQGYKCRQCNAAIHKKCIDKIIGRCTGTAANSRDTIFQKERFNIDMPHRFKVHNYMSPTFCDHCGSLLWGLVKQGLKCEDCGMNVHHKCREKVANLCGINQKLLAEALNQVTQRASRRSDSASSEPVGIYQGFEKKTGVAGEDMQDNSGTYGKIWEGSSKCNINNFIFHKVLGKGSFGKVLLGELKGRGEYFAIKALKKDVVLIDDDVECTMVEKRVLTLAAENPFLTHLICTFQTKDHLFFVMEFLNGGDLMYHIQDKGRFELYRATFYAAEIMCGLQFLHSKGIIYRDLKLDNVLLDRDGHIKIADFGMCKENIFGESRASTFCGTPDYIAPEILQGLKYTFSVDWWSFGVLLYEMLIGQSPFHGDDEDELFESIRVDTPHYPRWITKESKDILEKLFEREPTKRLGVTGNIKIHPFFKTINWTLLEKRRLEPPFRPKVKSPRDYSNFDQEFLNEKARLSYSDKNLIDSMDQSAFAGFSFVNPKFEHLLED
# [37] = target: Peroxisome proliferator-activated receptor gamma (Homo sapiens) (UniProt P37231); assay: PPARgamma Eurofins-Panlabs radioligand binding assay; design: ligand concentration 5 nM; conditions: Compound concentration 10.0 uM
# [38] = target: 5-hydroxytryptamine receptor 1A (Homo sapiens, UniProt P08908); assay: GPCRScan assay: inhibition of 5-HT1A; design: radioligand conc. used [nm] 0.5 – 1.0, parental cells stable CHO
# [39] = target: Serine/threonine-protein kinase PAK 6 (Homo sapiens) (UniProt Q9NQU5); assay: PAK6 DiscoveRx kinase panel; conditions: Compound concentration 1.0 uM
# [40] = target: Mitogen-activated protein kinase 13 (Homo sapiens) (UniProt O15264); assay: p38-delta DiscoveRx kinase panel; conditions: Compound concentration 1.0 uM
# [41] = target: Ephrin type-B receptor 1 (Homo sapiens) (UniProt P54762); assay: EPHB1 DiscoveRx kinase panel; conditions: Compound concentration 1.0 uM
# [42] = target: Wee1-like protein kinase (Homo sapiens) (UniProt P30291); assay: WEE1 DiscoveRx kinase panel; conditions: Compound concentration 1.0 uM
# [43] = target: G protein-coupled receptor kinase 3 (Homo sapiens) (UniProt P35626); assay: GRK3 DiscoveRx kinase panel; conditions: Compound concentration 1.0 uM
# [44] = target: Cyclin-dependent kinase 8 (Homo sapiens) (UniProt P49336); assay: CDK8 DiscoveRx kinase panel; conditions: Compound concentration 1.0 uM
# [45] = target: Delta-type opioid receptor (Homo sapiens) (UniProt P41143); conditions: Compound concentration 10.0 uM
# [46] = target: Serine/threonine-protein kinase 24 (Homo sapiens) (UniProt Q9Y6E0); assay: MST3 DiscoveRx kinase panel; conditions: Compound concentration 1.0 uM
# Sequence of Serine/threonine-protein kinase 24 (Homo sapiens) (Q9Y6E0 whole entry, looked up): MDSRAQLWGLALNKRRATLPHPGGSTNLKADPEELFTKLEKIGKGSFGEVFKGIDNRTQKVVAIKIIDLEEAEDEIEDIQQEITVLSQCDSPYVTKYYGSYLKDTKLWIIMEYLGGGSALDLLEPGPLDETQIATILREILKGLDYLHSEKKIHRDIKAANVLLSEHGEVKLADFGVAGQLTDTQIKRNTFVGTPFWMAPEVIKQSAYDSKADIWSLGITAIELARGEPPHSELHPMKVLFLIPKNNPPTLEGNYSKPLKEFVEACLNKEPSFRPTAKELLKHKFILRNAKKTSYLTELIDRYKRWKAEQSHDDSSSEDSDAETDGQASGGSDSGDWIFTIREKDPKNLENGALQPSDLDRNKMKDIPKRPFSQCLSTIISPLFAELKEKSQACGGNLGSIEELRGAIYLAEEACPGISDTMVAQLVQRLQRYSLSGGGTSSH
# [47] = target: Serine/threonine-protein kinase MRCK alpha (Homo sapiens) (UniProt Q5VT25); assay: MRCKA DiscoveRx kinase panel; conditions: Compound concentration 1.0 uM
# [48] = target: Serine/threonine-protein kinase BRSK2 (Homo sapiens) (UniProt Q8IWQ3); assay: BRSK2 DiscoveRx kinase panel; conditions: Compound concentration 1.0 uM
# Sequence of Serine/threonine-protein kinase BRSK2 (Homo sapiens) (Q8IWQ3 whole entry): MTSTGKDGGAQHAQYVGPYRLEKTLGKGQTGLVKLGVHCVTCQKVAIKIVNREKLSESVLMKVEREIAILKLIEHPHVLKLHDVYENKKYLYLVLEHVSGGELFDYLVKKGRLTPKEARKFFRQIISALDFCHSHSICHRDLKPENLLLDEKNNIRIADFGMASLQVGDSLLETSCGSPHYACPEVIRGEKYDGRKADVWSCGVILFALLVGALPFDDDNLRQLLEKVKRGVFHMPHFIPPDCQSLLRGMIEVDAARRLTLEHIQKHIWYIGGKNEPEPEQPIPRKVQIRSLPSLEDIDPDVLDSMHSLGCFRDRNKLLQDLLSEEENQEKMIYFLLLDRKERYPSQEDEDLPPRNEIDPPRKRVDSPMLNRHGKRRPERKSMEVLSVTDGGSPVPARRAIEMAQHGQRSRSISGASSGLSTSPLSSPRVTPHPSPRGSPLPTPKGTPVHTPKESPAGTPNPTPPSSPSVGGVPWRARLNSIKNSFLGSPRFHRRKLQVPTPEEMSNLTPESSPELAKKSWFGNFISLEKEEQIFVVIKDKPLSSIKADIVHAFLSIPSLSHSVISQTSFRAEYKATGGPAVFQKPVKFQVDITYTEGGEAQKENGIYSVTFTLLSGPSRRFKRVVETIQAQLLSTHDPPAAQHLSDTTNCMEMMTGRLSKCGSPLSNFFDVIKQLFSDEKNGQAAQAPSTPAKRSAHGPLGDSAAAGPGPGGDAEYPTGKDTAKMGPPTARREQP
# SK-BR-3 = assay: SK-BR-3 cell line Proliferation assay; assay type: functional, Homo sapiens; conditions: time 4 day
compound,measurement,setting,value
COc1cnccc1Nc1nc(-c2nn(Cc3c(F)cc(OCCO)cc3F)c3ccccc23)ncc1OC,residual activity,[1],100%
same,residual activity,[2],83%
same,residual activity,[3],93%
same,residual activity,[4],92%
same,inhibition,[5],60%
same,residual activity,[6],100%
same,residual activity,[7],100%
same,residual activity,[8],92%
same,residual activity,[9],100%
same,residual activity,[10],100%
same,residual activity,[11],100%
same,residual activity,[12],100%
same,residual activity,[13],78%
same,residual activity,[14],82%
same,inhibition,[15],1.38%
same,residual activity,[16],91%
same,inhibition,[17],4%
same,residual activity,[18],100%
same,residual activity,[19],96%
same,residual activity,[20],97%
same,residual activity,[21],42%
same,Kd,[22],0.0033 µM
same,residual activity,[22]; Compound concentration 1.0 uM,0.05%
same,residual activity,[23],97%
same,residual activity,[24],100%
same,residual activity,[25],78%
same,residual activity,[26],100%
same,residual activity,[27],100%
same,inhibition,[28],-2%
same,residual activity,[29],95%
same,residual activity,[30],52%
same,residual activity,[31],48%
same,residual activity,[32],95%
same,residual activity,[33],92%
same,residual activity,[34],100%
same,residual activity,[35],100%
same,residual activity,[36],80%
same,inhibition,[37],-8%
same,Ki,[38],9.44 µM
same,residual activity,[39],79%
same,residual activity,[40],99%
same,residual activity,[41],100%
same,residual activity,[42],100%
same,residual activity,[43],100%
same,residual activity,[44],69%
same,inhibition,[45],-6%
same,residual activity,[46],100%
same,residual activity,[47],72%
same,residual activity,[48],83%
same,Cell Proliferation IC50,SK-BR-3,1.1 µM
